The record followed here is patent publication US5447934A, “Anti-allergic thiadiazolo [4,3-a]pyridine derivatives” (Boehringer Mannheim GmbH, priority 1991, dated 1995).

In the first experiment the test system is passive sensitised guinea pig lung parenchyma strips. Put plainly: Inhibition of the antigen-caused constriction of passive sensitised guinea pig lung parenchyma strips in vitro (organ bath). The experiment is classed as cell-based. The settings on record: Cavia porcellus, 20 min; 10 μg/ml substance; ovalbumin 0.1 μg/ml; 20 min/37°C. preincubation; read-out: % Inhibition of the constriction of passive-sensitised lung parenchyms strips (guinea pigs) induced by ovalbumin. How it is done: Inhibition of the antigen-caused construction of passive sensitised guinea pig lung parenchyma strips in vitro (organ bath)
For the in vitro investigation of the compounds according to the invention, the inhibition of the antigen-caused constriction of passive sensitised guinea pig lung parenchyma strips was measured, as described in the following:
Pirbright white guinea pigs were stunned by a blow to the nape of the neck and exsanguinated. The lungs were rinsed substantially blood-free in situ with Krebs buffer, pH 7.4. Subsequently, the lungs were removed, cut up into strips (about […]) and the strips passively sensitised for one hour at room temperature with a 1.:50 dilution of a homologous anti-ovalbumin antiserum and then washed with Krebs buffer 1 x. The antiserum had been previously produced according to DAVIES (1) in guinea pigs of the same strain by repeated injection of ovalbumin (2 x crystallised) with addition of complete Freund's adjuvant. Until its used the antiserum was stored undiluted at -18° C. Subsequently, the lung strips were individually suspended on an isometric measurement sensor in 10 ml waterbaths with an initial tension of 1.2 g. Thereafter, the baths were filled with Krebs buffer and continuously gassed at 37° C. with O2 (95%) and CO2 (5%). Via an amplifier the constrictions of the lung strips were recorded on a recorder. After 30 minutes acclimatisation phase, histamine control spasms were produced for the recognition of the reactivity of the organ pieces washed, subsequently the best substance preincubated 37° C. for 20 minutes and thereafter the ovalbumin-caused constriction initiated. The inhibition action of the compounds according to the invention was expressed as percentage reduction of the constriction amplitude of the "samples with best substance" in relation to the "untreated control constrictions".
For `c1ccc(N=c2snc3ccccn23)nc1` [Example 2a, 3-(2-pyridinylimino)-3H-[1,2,4]-thiadiazolo [4,3-a]-pyridine], the inhibition at 10 µg/mL is 56%.
With `c1ccn2c(=Nc3ccncc3)snc2c1` [Example 2b, 3-(4-pyridinylimino)-3H-[1,2,4]-thiadiazolo [4,3-a]-pyridine], the inhibition at 10 µg/mL amounted to 80%.
Turning to `COc1ccc(N=c2snc3ccccn23)cc1` [Example 2e, 3-(4-methoxyphenylimino)-3H-[1,2,4]-thiadiazolo-[4,3-a]pyridine], the inhibition at 10 µg/mL is 48%.
Turning to `Cc1cc(O)ccc1N=c1snc2ccccn12` [Example 2p, 3-(4-hydroxy-2-methyl-phenylimino)-3H-[1,2,4]-thiadiazolo [4,3-a]-pyridine], the inhibition at 10 µg/mL came to 62%.
On to `c1ccn2c(=Nc3ccc4c(c3)OCO4)snc2c1` [Example 2q, 3-(3,4-methylenedioxyphenyl-imino)-3H-[1,2,4]-thiadia-zolo [4,3-a]-pyridine], for which the inhibition at 10 µg/mL is 57%.
Consider `c1ccn2c(=NC3=NCCS3)snc2c1` [Example 2u, 3-(4,5-dihydrothiazol-2-ylimino)-3H-[1,2,4]-thia-diazolo [4,3-a]pyridine], for which the inhibition at 10 µg/mL amounted to 78%.
Take `Clc1ccc2nsc(=Nc3ccncc3)n2c1` [Example 4]: the inhibition at 10 µg/mL was 61%.
Consider `CN(O)C(=O)Cc1ccc(N=c2snc3ccccn23)cc1` [Example 9, 4-(3H-[1,2,4]-Thiadiazole[4,3-a]-pyridin-3-ylideneamino)-phenylacetic acid N-methylhydroxamide], for which the inhibition at 10 µg/mL came to 61%.

The experiment is the same for the next values; noted with them: Cavia porcellus, 20 min; 200 μg/ml substance (footnote +); ovalbumin 0.1 μg/ml; 20 min/37°C. preincubation; read-out: % Inhibition of the constriction of passive-sensitised lung parenchyms strips (guinea pigs) induced by ovalbumin.
As for `Cn1c(=O)c2[nH]cnc2n(C)c1=O` [aminophylline, reference compound], the inhibition at 200 µg/mL worked out at 26%.

For orientation: inhibition means the drop in the measured response relative to a control, in per cent.
